Entries after “also recorded” stand apart in the source; their conditions may differ.
What was measured:
ovalbumin = molecular target: T1, ovalbumin (Gallus gallus, UniProt P01012); experiment: Transmission electron microscopy of ovalbumin heated in the presence of small compounds; parameters: species or system chicken; settings: 1 mg/ml ovalbumin heated with 1 mg/ml compound
T1 construct: purchased Sigma A5503
T1 sequence (P01012 1-386): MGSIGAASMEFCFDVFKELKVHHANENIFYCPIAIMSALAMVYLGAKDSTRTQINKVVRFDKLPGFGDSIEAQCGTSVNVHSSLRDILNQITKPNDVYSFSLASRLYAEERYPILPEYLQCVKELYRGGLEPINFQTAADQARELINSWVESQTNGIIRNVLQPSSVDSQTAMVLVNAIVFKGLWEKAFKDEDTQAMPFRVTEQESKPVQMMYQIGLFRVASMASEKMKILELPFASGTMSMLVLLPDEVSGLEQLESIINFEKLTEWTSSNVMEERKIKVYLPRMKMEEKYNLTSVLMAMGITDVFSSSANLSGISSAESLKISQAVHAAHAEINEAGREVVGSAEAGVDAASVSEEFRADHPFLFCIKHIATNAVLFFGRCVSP
Description: For TEM analyses grids were prepared according to standard procedures. Ovalbumin samples at 1 mg/ml were applied to 100-mesh copper grids with carbon coated Formvar (Merck, Germany), and subsequently washed with PBS and H2O. Grids were applied to droplets of 2% (m/v) methylcellulose with 0.4% (m/v) uranylacetate pH 4. After a 2-minutes incubation grids were dried on a filter. Images were recorded at 80 kV, at suitable magnifications on a JEM-1200EX electron microscope (JEOL, Japan).

heat-denatured ovalbumin = molecular target: T2, heat-denatured ovalbumin (Gallus gallus, UniProt P01012); experiment: Thioflavin T fluorescence of ovalbumin and small compounds; parameters: species or system chicken; settings: 1 mg/ml compound, 1 mg/ml OVA
T2 construct: purchased Sigma A5503
T2 sequence (P01012 1-386): T1 sequence (P01012 1-386)
Description: To establish the enhancement of Thioflavin T fluorescence by ovalbumin preparations, 90 μl of 25 μM ThT-solution in 50 mM Glycine buffer (pH 9.0) was added to 10 μl sample in duplicate wells of black 96-wells plates. Heat-denatured ovalbumin at 1 mg/ml in PBS with no addition, DMSO at a final concentration of 1% v/v, or 1 mg/ml of the compounds listed in Table 7, was used. Compound stocks are 100 mg/ml in DMSO. In addition, ovalbumin at 1 mg/ml with the same additions was first heat denatured and subsequently used in the fluorescence assay. Heat denaturation was according to the protocol given above. Fluorescence of duplicates was measured on a Thermo Fluoroskan Ascent 2.5, at 435 nm excitation and 485 nm emission wavelengths.

tPA/plasminogen [1] = molecular target: T3, tPA/plasminogen (Homo sapiens, UniProt P00750); experiment: tPA/plasminogen activation by OVA heated in the presence of compounds (substrate PNAPEP1751); assay type: biochemical; settings: 25 μg/ml OVA, 25 μg/ml compound, […] DMSO
T3 construct: purchased Boehringer Ingelheim Actilyse
Description: Heated OVA, either in PBS/1% DMSO (positive control), or in the same buffer in the presence of 1 mg/ml of the compounds, was used 40-fold diluted in the assay. Negative control was buffer without OVA. […] In addition, it was assessed whether the compounds interfere with absorbance readings at 405 nm, with converted chromogenic substrate. […] The yellow solution is divided over wells of an ELISA plate. […] Signals are compared and related to the control.

Hb-AGE = molecular target: T4, Hb-AGE (Homo sapiens, UniProt P68871+P69905); experiment: ELISA binding of tPA to immobilized Hb-AGE after pre-incubation with compounds; settings: Hb-AGE first overlayed with compound (concentration series), then tPA
T4 construct: purchased Sigma-Aldrich H7379
Description: Compounds were now diluted 10× in PBS/0.1% Tween20 (500 μg/ml compound). […] With the selection, similar binding assays are performed with misfolded OVA and Aβ. Finally, concentration series of the selected compounds are used in the binding studies.

human blood platelets = experiment: Platelet aggregation (aggregometric assay with washed platelets); assay type: cell-based
Description: The influence of amyloid-β(1-40) E22Q Dutch type (Aβ) peptide aggregates with cross-β structure conformation on blood platelet aggregation was tested with washed platelets in an aggregometric assay. Freshly drawn human aspirin free blood was mixed gently with citrate buffer to avoid coagulation. Blood was spinned for 15′ at 150*g at 20° C. and supernatant was collected; platelet rich plasma (PRP). […] After spinning down the platelets upon centrifugation for 15′ at 330*g at 20° C., the pellet was resuspended in HEPES-Tyrode buffer pH 6.5. Prostacyclin was added to a final concentration of 10 ng/ml, and the solution was centrifuged for 15′ at 330*g at 20° C., with a soft brake. The pellet was resuspended in HEPES-Tyrode buffer pH 7.2 in a way that the final platelet number was adjusted to 200,000/μl. Platelets were kept at 37° C. for at least 30′, before use in the assays, to ensure that they were in the resting state.
Aggregation of platelets was monitored in an aggregometer (Chrono-Log Corporation, Havertown, Pa., USA) for 15 minutes at 37° C. with a magnet stirring speed of 900 rpm. First, 270 μl of platelet solution was pipetted in the cuvettes and after 1 minute of stirring, 30 μl of preincubated (5 minutes, RT) Aβ and Hematein solution or control was added. The hematein stock was 10 mg/ml in HEPES-Tyrode buffer. The Aβ stock was 1 mg/ml. For blank readings unstirred HEPES Tyrode buffer was used. The aggregation is expressed as the percentage of the light transmission (0-100%). As a positive control, synthetic thrombin receptor activating peptide (TRAP) induced platelet aggregation was used. A control experiment was performed to study the influence of the red colour of hematein on the light transmission. For this, 4 μM TRAP was added at time 1 minute to the platelets, then hematein was added after 6 minutes of aggregation. The platelets were used for not more than 4 hours after isolation to reduce variations in sensitivity amongst subsequent measurements.
Ellagic acid was first dissolved to 100 mg/ml in DMSO, and then further diluted to 1 mg/ml in HBS buffer. Final concentrations of Aβ and ellagic acid in the aggregation assay were 50 μg/ml and 25/50 μg/ml, respectively. In addition, the influence of ellagic acid alone on platelet aggregation was tested. As a control, the influence of 0.08% DMSO on 50 μg/ml Aβ-induced platelet aggregation was analyzed. The 100% DMSO of the ellagic acid stock was diluted 2000 and 4000×, resulting in […] final DMSO concentrations in the aggregation assay.

tPA/plasminogen [2] = molecular target: T3, tPA/plasminogen; experiment: tPA/plasminogen activation by pre-formed misfolded OVA in the presence of compounds; assay type: biochemical; settings: 80-fold or 160-fold diluted compound and misfolded OVA stocks of 1 mg/ml
Description: […] Negative control was buffer without OVA. […] In addition, it was assessed whether the compounds interfere with absorbance readings at 405 nm, with converted chromogenic substrate. […] The yellow solution is divided over wells of an ELISA plate. […] Signals are compared and related to the control.

tPA = tPA (Homo sapiens, UniProt P00750); experiment: tPA serine protease activity with OVA heated in the presence of compounds (substrate S-2765); assay type: biochemical; parameters: purchased Boehringer Ingelheim Actilyse; settings: OVA heated with 1 mg/ml compound, 80-, 160- or 320-fold diluted, 100 nM tPA
Description: For this purpose, the influence of the compounds on heat-denaturation of OVA was analyzed (see above: Thioflavin T fluorescence measurements). Heated OVA at 1 mg/ml in PBS in the presence or absence of 1 mg/ml of the twelve compounds listed in Table 7 in PBS/DMSO (final DMSO concentration 1%) was used 80-fold or 160-fold or 320-fold diluted (final heated OVA concentration and compound concentration was 12.5 or 6.3 or 3.1 μg/ml; final DMSO concentration was 0.013% and 0.006% and 0.003%).

amyloid-β(1-40) E22Q = molecular target: T5, amyloid-β(1-40) E22Q (Homo sapiens, UniProt P05067, E693Q); experiment: ELISA binding of tPA to immobilized Aβ after pre-incubation with compounds; settings: Aβ first overlayed with compound (concentration series), then tPA
T5 construct: For similar ELISA's with DOVA and Aβ(1-40) E22Q, 1 μg/ml DOVA or Aβ was coated; purchased Peptide facility, Dutch Cancer Institute, Amsterdam; host or cells: synthetic peptide
Description: Compounds were now diluted 10× in PBS/0.1% Tween20 (500 μg/ml compound). […] With this approach a further selection of the compounds was achieved. Now, compounds that at least interact with HB-AGE are selected. With the selection, similar binding assays are performed with misfolded OVA and Aβ. Finally, concentration series of the selected compounds are used in the binding studies.

T3 sequence (P00750 36-562): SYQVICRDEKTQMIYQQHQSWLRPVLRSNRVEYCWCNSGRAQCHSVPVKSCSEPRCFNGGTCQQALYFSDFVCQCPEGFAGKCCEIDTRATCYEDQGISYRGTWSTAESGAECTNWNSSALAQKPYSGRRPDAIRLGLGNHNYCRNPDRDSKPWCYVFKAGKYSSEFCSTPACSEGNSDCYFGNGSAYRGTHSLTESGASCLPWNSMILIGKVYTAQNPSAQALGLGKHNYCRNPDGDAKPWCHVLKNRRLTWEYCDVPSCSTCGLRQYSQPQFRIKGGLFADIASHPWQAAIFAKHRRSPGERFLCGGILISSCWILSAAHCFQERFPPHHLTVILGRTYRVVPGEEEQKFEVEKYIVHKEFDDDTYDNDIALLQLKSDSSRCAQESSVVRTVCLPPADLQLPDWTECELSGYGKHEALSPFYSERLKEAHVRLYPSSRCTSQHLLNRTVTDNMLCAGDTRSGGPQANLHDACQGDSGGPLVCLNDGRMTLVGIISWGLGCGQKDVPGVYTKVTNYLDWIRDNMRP
T5 sequence (P05067 672-711 E693Q): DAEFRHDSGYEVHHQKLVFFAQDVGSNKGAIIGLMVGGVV
Sequence of tPA (P00750 36-562): as the sequence (P00750 36-562) above
T4 sequence (P69905 2-142 limits assumed): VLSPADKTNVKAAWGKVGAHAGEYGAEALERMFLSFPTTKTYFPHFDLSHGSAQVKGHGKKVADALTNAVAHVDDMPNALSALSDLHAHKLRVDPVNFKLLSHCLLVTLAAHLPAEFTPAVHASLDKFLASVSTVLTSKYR
T4 sequence (P68871 2-147 limits assumed): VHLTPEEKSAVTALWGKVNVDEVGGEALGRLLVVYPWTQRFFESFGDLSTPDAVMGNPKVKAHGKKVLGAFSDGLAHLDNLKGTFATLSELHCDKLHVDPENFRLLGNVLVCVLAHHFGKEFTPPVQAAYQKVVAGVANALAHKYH

O=C1C=C2CC3(O)COc4c(ccc(O)c4O)C3=C2C=C1O (stereo not shown) [compound 152, Hematein]
appearance of ovalbumin heated in the presence of compound on TEM image (ovalbumin; listed as Haematein): No large aggregates. Small aggregates at a lower
appearance of ovalbumin heated in the presence of compound on TEM image (ovalbumin; listed as haematein): less OVA aggregates after heating in the presence of the
influence on Thioflavin T fluorescence with misfolded OVA (heat-denatured ovalbumin): Inhibition on Thioflavin T fluorescence with misfolded OVA
influence on tPA/plasminogen activation by OVA pre-heated in the presence of compound (tPA/plasminogen [1]): Inhibition of tPA/plasminogen activation by OVA pre-heated
influence on tPA binding to immobilized Hb-AGE (Hb-AGE): Inhibited tPA binding to immobilized misfolded protein (Hb-
influence on Aβ induced platelet aggregation (human blood platelets; 100 μg/ml Aβ and 333 μg/ml haematein added together): almost completely blocked; also recorded: potent inhibitor of misfolded Aβ-induced platelet aggregation; also recorded: Inhibition of Aβ-induced platelet aggregation
reduction of TRAP-induced platelet aggregation (human blood platelets; TRAP and haematein pre-mixed): approximately 10%
influence on tPA/plasminogen activation by pre-formed misfolded OVA (tPA/plasminogen [2]): Full block of tPA/plasminogen activation by misfolded OVA
influence on tPA protease activity of OVA heated in the presence of compound (tPA): Potentiation of tPA protease activity
influence on tPA binding to immobilized Aβ (amyloid-β(1-40) E22Q): Stimulated tPA binding to immobilized misfolded protein (Aβ,

Reference: patent US20080267948A1, “Croos-B Structure Binding Compounds” (priority 2005, published 2008)
